Assay results as given in patent US9409905B2, “Antibacterial compounds and methods for use” (PTC THERAPEUTICS, INC., priority 2011, dated 2016).

Experiments:
[1] = tested on: Escherichia coli (E. coli) BAS849; assay: Antibacterial activity, microbroth dilution MIC (Table 1); assay type: cell-based; details: microbroth dilution, super sensitive Gram-negative E. coli BAS849, read-out: MIC, BAS849
Method in brief: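 Each strain is exposed to test compound in a microbroth dilution series; visible growth is scored macroscopically, and the lowest growth-free concentration is recorded as MIC in μg/mL.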

[2] = tested on: Staphylococcus aureus (S. aureus) 29213; assay: as above; assay type: cell-based; details: microbroth dilution, Gram-positive S. aureus 29213, read-out: MIC, 29213
Method in brief: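 Lowest concentration stopping macroscopically visible growth under test conditions, by broth microdilution, defines the MIC (μg/mL).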

E. coli 25922 = assay: as above; assay type: cell-based, Escherichia coli; details: Escherichia coli; microbroth dilution; control Gram-negative E. coli 25922 strain; read-out: MIC, 25922
Method in brief: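 Read-out: visual absence of growth. The lowest concentration meeting this gives the MIC, expressed in μg/mL, with microbroth dilution as the method.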

E. coli LZ3111 = assay: Antibacterial activity, MIC, quinolone resistant strain (Table 2); assay type: cell-based; details: Escherichia coli, LZ3111, read-out: MIC LZ3111
Method in brief: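 Microbroth dilution method; MIC (μg/mL) is the lowest drug concentration preventing macroscopically visible growth under test conditions.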

E. coli ELZ4000 = assay: Antibacterial activity, MIC, multi-drug resistant clinical isolate (Table 3); assay type: cell-based; details: Escherichia coli, ELZ4000, read-out: MIC ELZ4000
Method in brief: (§1)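 Broth microdilution assay; MIC reported in μg/mL as the lowest drug concentration preventing macroscopically visible growth under test conditions.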

E. coli ELZ4251 = assay: as above; assay type: cell-based; details: Escherichia coli
Method in brief: as §1

[3] = tested on: Acinetobacter baumannii (A. baumannii) BAA747; assay: Antibacterial activity, MIC (Table 4); assay type: cell-based; details: A. baumannii BAA747, read-out: MIC, BAA747
Method in brief: (§2)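 Activity was measured by microbroth dilution. The MIC, in μg/mL, is the lowest drug concentration that prevents macroscopically visible growth under the test conditions. The resistant strains are multi-drug resistant clinical isolates.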

[4] = tested on: Klebsiella pneumoniae (K. pneumoniae) 35657; assay: Antibacterial activity, MIC (Table 4); assay type: cell-based; details: K. pneumoniae 35657, read-out: MIC, 35657
Method in brief: as §2

A. baumannii MXX2240 = assay: Antibacterial activity, MIC, resistant strain (Table 4); assay type: cell-based; details: Acinetobacter baumannii, MXX2240; resistant A. baumannii MMX2240, multi-drug resistant clinical isolate; read-out: MIC, MMX2240
Method in brief: as §2

K. pneumoniae MXX1232 = assay: as above; assay type: cell-based; details: Klebsiella pneumoniae, MXX1232; resistant K. pneumoniae MMX1232, multi-drug resistant clinical isolate; read-out: MIC, MMX1232
Method in brief: as §2

[5] = tested on: Pseudomonas aeruginosa (P. aeruginosa) 27853; assay: Antibacterial activity, MIC (Table 5); assay type: cell-based; details: P. aeruginosa 27853, read-out: MIC, 27853
Method in brief: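 Activity was measured by microbroth dilution. The MIC, in μg/mL, is the lowest drug concentration that prevents macroscopically visible growth under the test conditions.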

[6] = tested on: Haemophilus influenzae (H. influenzae) 49247; assay: Antibacterial activity, MIC (Table 6); assay type: cell-based
Method in brief: (§3)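 Activity was determined by microbroth dilution. MIC, in μg/mL, is the lowest drug concentration that prevents macroscopically visible growth under the test conditions.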

[7] = tested on: Moraxella catarrhalis (M. catarrhalis) 25238; assay: Antibacterial activity, MIC (Table 7); assay type: cell-based
Method in brief: as §3

[8] = tested on: Neisseria meningitidis (N. meningitidis) 13090; assay: Antibacterial activity, MIC (Table 8); assay type: cell-based
Method in brief: as §3

Compound | MIC [1] | MIC [2] | MIC (E. coli 25922) | MIC (E. coli LZ3111) | MIC (E. coli ELZ4000) | MIC (E. coli ELZ4251) | MIC [3] | MIC [4] | MIC (A. baumannii MXX2240) | MIC (K. pneumoniae MXX1232) | MIC [5] | MIC [6] | MIC [7] | MIC [8]
CCc1c(-c2ccc3c(c2)cc(CNCC2CCCN2CC)n3C)[nH]c(=O)c(C(=O)O)c1O.Cl.Cl (stereo not drawn) [Cpd 230, 5-ethyl-6-(2-(((1-ethylpyrrolidin-2-yl)methylamino)methyl)-1-methyl-1H-indol-5-yl)-4-hydroxy-2-oxo-1,2-dihydropyridine-3-carboxylic acid dihydrochloride] | < 1 µg/mL | 12.5 to 150 µg/mL | 3.5 to 12.5 µg/mL | 3.5 to 12.5 µg/mL | 12.5 to 150 µg/mL | 12.5 to 150 µg/mL | 12.5 to 150 µg/mL | 1 to 3.5 µg/mL | 12.5 to 150 µg/mL | 12.5 to 150 µg/mL | 12.5 to 150 µg/mL | 3.5 to 12.5 µg/mL | 3.5 to 12.5 µg/mL | 1 to 3.5 µg/mL
CCc1c(-c2ccc3c(c2)cc(CNCC2CCCN(C)C2)n3C)[nH]c(=O)c(C(=O)O)c1O.Cl.Cl (stereo not drawn) [Cpd 231, 5-ethyl-4-hydroxy-6-(1-methyl-2-(((1-methylpiperidin-3-yl)methylamino)methyl)-1H-indol-5-yl)-2-oxo-1,2-dihydropyridine-3-carboxylic acid dihydrochloride] | < 1 µg/mL | 12.5 to 150 µg/mL | 1 to 3.5 µg/mL | 1 to 3.5 µg/mL | 12.5 to 150 µg/mL | 12.5 to 150 µg/mL | 3.5 to 12.5 µg/mL | 1 to 3.5 µg/mL | 12.5 to 150 µg/mL | 12.5 to 150 µg/mL | 12.5 to 150 µg/mL | 1 to 3.5 µg/mL | 3.5 to 12.5 µg/mL | 1 to 3.5 µg/mL
CCc1c(-c2ccc3c(c2)cc(CNC2CCC2)n3C)[nH]c(=O)c(C(=O)O)c1O.Cl [Cpd 232, 6-(2-((cyclobutylamino)methyl)-1-methyl-1H-indol-5-yl)-5-ethyl-4-hydroxy-2-oxo-1,2-dihydropyridine-3-carboxylic acid hydrochloride] | < 1 µg/mL | 3.5 to 12.5 µg/mL | < 1 µg/mL | 1 to 3.5 µg/mL | 3.5 to 12.5 µg/mL | 3.5 to 12.5 µg/mL | < 1 µg/mL | 1 to 3.5 µg/mL | 1 to 3.5 µg/mL | 12.5 to 150 µg/mL | 3.5 to 12.5 µg/mL | < 1 µg/mL | < 1 µg/mL | < 1 µg/mL
CCc1c(-c2ccc3c(c2)cc(CNCC2CCCCN2C)n3C)[nH]c(=O)c(C(=O)O)c1O.Cl.Cl (stereo not drawn) [Cpd 233, 5-ethyl-4-hydroxy-6-(1-methyl-2-((((1-methylpiperidin-2-yl)methyl)amino)methyl)-1H-indol-5-yl)-2-oxo-1,2-dihydropyridine-3-carboxylic acid dihydrochloride] | < 1 µg/mL | 12.5 to 150 µg/mL | 1 to 3.5 µg/mL | 1 to 3.5 µg/mL | 12.5 to 150 µg/mL | 12.5 to 150 µg/mL | 12.5 to 150 µg/mL | 1 to 3.5 µg/mL | 12.5 to 150 µg/mL | 12.5 to 150 µg/mL | 12.5 to 150 µg/mL | 3.5 to 12.5 µg/mL | 3.5 to 12.5 µg/mL | 1 to 3.5 µg/mL
CCc1c(-c2ccc3c(c2)cc(CNCC2CCN(C)CC2)n3C)[nH]c(=O)c(C(=O)O)c1O.Cl.Cl [Cpd 234, 5-ethyl-4-hydroxy-6-(1-methyl-2-((((1-methylpiperidin-4-yl)methyl)amino)methyl)-1H-indol-5-yl)-2-oxo-1,2-dihydropyridine-3-carboxylic acid dihydrochloride] | < 1 µg/mL | 12.5 to 150 µg/mL | 1 to 3.5 µg/mL | 1 to 3.5 µg/mL | 12.5 to 150 µg/mL | 12.5 to 150 µg/mL | 12.5 to 150 µg/mL | 1 to 3.5 µg/mL | 12.5 to 150 µg/mL | 12.5 to 150 µg/mL | 12.5 to 150 µg/mL | 1 to 3.5 µg/mL | 3.5 to 12.5 µg/mL | 1 to 3.5 µg/mL
CCc1c(-c2ccc3c(c2)cc(CNCC2CCC2)n3C)[nH]c(=O)c(C(=O)O)c1O.Cl [Cpd 235, 6-(2-((cyclobutylmethylamino)methyl)-1-methyl-1H-indol-5-yl)-5-ethyl-4-hydroxy-2-oxo-1,2-dihydropyridine-3-carboxylic acid hydrochloride] | < 1 µg/mL | 3.5 to 12.5 µg/mL | < 1 µg/mL | 3.5 to 12.5 µg/mL | 12.5 to 150 µg/mL | 3.5 to 12.5 µg/mL | < 1 µg/mL | 1 to 3.5 µg/mL | 3.5 to 12.5 µg/mL | 12.5 to 150 µg/mL | 12.5 to 150 µg/mL | < 1 µg/mL | < 1 µg/mL | < 1 µg/mL
CCc1c(-c2ccc3c(c2)cc(CNCC2CCCC2)n3C)[nH]c(=O)c(C(=O)O)c1O.Cl [Cpd 236, 6-(2-((cyclopentylmethylamino)methyl)-1-methyl-1H-indol-5-yl)-5-ethyl-4-hydroxy-2-oxo-1,2-dihydropyridine-3-carboxylic acid hydrochloride] | < 1 µg/mL | 3.5 to 12.5 µg/mL | < 1 µg/mL | 3.5 to 12.5 µg/mL | 12.5 to 150 µg/mL | 12.5 to 150 µg/mL | 1 to 3.5 µg/mL | 1 to 3.5 µg/mL | 1 to 3.5 µg/mL | 12.5 to 150 µg/mL | 12.5 to 150 µg/mL | 1 to 3.5 µg/mL | < 1 µg/mL | < 1 µg/mL
CCc1c(-c2ccc3c(c2)cc(CN2CCCN(C)CC2)n3C)[nH]c(=O)c(C(=O)O)c1O.Cl.Cl [Cpd 238, 5-ethyl-4-hydroxy-6-(1-methyl-2-((4-methyl-1,4-diazepan-1-yl)methyl)-1H-indol-5-yl)-2-oxo-1,2-dihydropyridine-3-carboxylic acid dihydrochloride] | < 1 µg/mL | 3.5 to 12.5 µg/mL | 1 to 3.5 µg/mL | 1 to 3.5 µg/mL | 12.5 to 150 µg/mL | 12.5 to 150 µg/mL | 3.5 to 12.5 µg/mL | 1 to 3.5 µg/mL | 12.5 to 150 µg/mL | 12.5 to 150 µg/mL | 12.5 to 150 µg/mL | < 1 µg/mL | 1 to 3.5 µg/mL | < 1 µg/mL
CCc1c(-c2ccc3c(c2)cc(CC2CC2C)n3C)[nH]c(=O)c(C(=O)O)c1O.Cl (stereo not drawn) [Cpd 240, 5-ethyl-4-hydroxy-6-(1-methyl-2-((2-methylcyclopropyl)methyl)-1H-indol-5-yl)-2-oxo-1,2-dihydropyridine-3-carboxylic acid hydrochloride] | < 1 µg/mL | 3.5 to 12.5 µg/mL | < 1 µg/mL | 3.5 to 12.5 µg/mL | 12.5 to 150 µg/mL | 3.5 to 12.5 µg/mL | < 1 µg/mL | < 1 µg/mL | 1 to 3.5 µg/mL | 12.5 to 150 µg/mL | 3.5 to 12.5 µg/mL | < 1 µg/mL | < 1 µg/mL | < 1 µg/mL
